# Assay results from patent US20150285789A1, “ASSAYS, SYSTEMS, AND METHODS FOR OBTAINING PERSONALIZED ANABOLIC PROFILES” (BOSTON MEDICAL CENTER CORPORATION, priority 2012, published 2015).
# “Also recorded” adds a separate entry of the source.
# Legend:
# C2C12 cells = experiment: High-throughput screen for small molecules that augment BMP-2 induced ALP expression (osteoblast conversion); format: cell-based, mouse; conditions: DM + BMP-2 + compound at target concentration 1 μM, 72 h, duplicate; ImageJ, Digilab and visual inspection analyses
# Procedure: The level of alkaline phosphatase (ALP) activity measured colorimetrically was scored in all wells using three criteria (see Exemplary materials and methods in the Examples section). […] ALP intensity images were acquired using a Digilab Plate reader. Images were analyzed using three independent criteria and considered for secondary screening and validation in the MC3T3 pre-osteoblast cell line Enhancement of the mRNA and protein levels of the mature osteoblast markers RunX2 and osterix was tested. *Plates were run in duplicate.
# C2C12 cells were plated at 750 cells per well in a 384-square well plate and were allowed to adhere for 24 h in growth media (GM). […] After 72 h, cells were fixed and stained for alkaline phosphatase (ALP) and DAPI for nuclei visualization. […] It was next sought to screen a larger set of small molecules from more diverse backgrounds to identify enhancement of osteoblast conversion.
# Cell culture: C2C12. The C2C12 myoblast cell line (ATCC) was maintained in growth medium (GM) that consisted of high glucose DMEM (Gibco), 10% fetal bovine serum (Gibco), and 1% pen/strep (Invitrogen). […] Negative controls were switched to DM but only received 20 mM acetic acid. Cells were passaged approximately every two days and were kept below 70% con-fluency, as per manufacturer's instructions. MC3T3-E1. MC3T3-E1 subclone 4 pre-osteoblast cells (ATCC #CRL-2593) were maintained in minimum essential medium, alpha modification (Invitrogen #A10490-01) containing 10% FBS and 1% penicillin/streptomycin. […] All cell lines used were maintained in a 37° C. incubator at 5% CO2.
# 384-square well plates (BD) were used for primary screening. PBS was added to the outermost wells to reduce edge effects. In each plate, 40 wells were used as positive controls, 28 wells were used as negative controls, and the center 240 wells were used for compound testing. All plates were screened in duplicate. The inner 308 wells received 750 cells per well and were allowed to adhere in GM for 24 h. GM was then removed, wells were washed once with PBS, and DM was added to the inner 308 wells. Negative control wells received DM. […] DMSO was used as the vehicle for compound addition in this study. DMSO was also added to positive and negative control wells in equimolar amounts.
# Cells were initially fixed with a fixative solution that consisted of a 3:10:26 ratio mixture of 37% formaldehyde: citrate: acetone. Colorimetric detection of osteoblasts was achieved using the alkaline phosphatase (ALP) kit obtained from Sigma-Aldrich (Catalog #86C). Cell number was determined based on nuclei staining with DAPI nucleic acid stain as per manufacturer's instructions (Invitrogen).
# Well images identifying ALP+ cells were acquired using a MIAS-2 plate reader, as per manufacturer's instructions (Digilab, Holliston, Mass.).
# Acquired images were assessed using three different search strategies (ImageJ software, Digilab software, and systematic scanning by eye); each having different sensitivities and specificities with regard to the assay.
# Well images were opened with the image software platform ImageJ. Images were normalized on a per plate basis and, since ALP positive cells become darker in a gray scale image, the image darkness was assessed. Images were analyzed using an Area Fraction method whereby a minimum pixel darkness threshold was applied for all image wells. All pixels that were as dark or darker than the threshold applied were converted to black. […] The binary image was then assessed to see percentage of pixels of the image that were black (i.e. Area Fraction). Average Area Fraction from duplicate compound wells was divided by average duplicate nuclei count (as measured by DAPI count in ImageJ) to get Area Fraction on a per-cell basis. This ratio (Area Fraction: Nuclei count) was then compared to positive control wells.
# Well images were analyzed using eaZYX Image Analyzer software (Digilab, Holliston, Mass.).
# MC3T3 cells = experiment: TGFβ1 mediated inhibition of osteoblast differentiation, qRT-PCR of Runx2, Osx and Smad 7; format: cell-based, mouse
# Procedure: MC3T3 cells were treated with media containing 1 ng/mL of TGFβ1 for 24 h and then the media were replaced with BMP-2 or BMP-2 with 100 ng/mL rapamycin. RNA was collected 24 h afterwards and analyzed by qRT-PCR and the ΔΔCT method. […] Shown are representative results (average of duplicates) of at least three independent experiments.
# Total RNA was extracted by the TRIzol method as recommended by the manufacturer (Invitrogen). Isolated RNA was cleaned up using the Rneasy Kit (Qiagen) and 500 ng of RNA was reverse-transcribed using the High Capacity cDNA Synthesis Kit (Applied Biosystems #4368813). Taqman expression assays were used for detection. The expression of 18S (Applied Biosystems #4319413E) was used for normalization of gene expression values. Real-time primers Runx2, Sp7 (Osx), Bglap1 (Ocn) and Smad 7 were obtained from Applied Biosystems (Mm00501580_ml, Mm00504574_ml, Mm03413826_ml and Mm00484742_ml respectively). Quantification was determined using the ΔΔCT method and normalized to the untreated sample.
Compound,enhancement of BMP-2 induced ALP expression (screen hit) (C2C12 cells),"Runx2 and Osx mRNA, basal levels (MC3T3 cells; TGFβ1 added to MC3T3 cells)",Smad-7 levels (MC3T3 cells; factor alone)
"CCCCC[C@H](O)CC[C@H]1[C@H](O)CC(=O)[C@@H]1CCCCCCC(=O)O [13, 14-Dihydro-prostaglandin E1]",enhanced ALP expression,–,–
CC1=C(/C=C/C(C)=C/C=C/C(C)=C\C(=O)O)C(C)(C)CCC1 [13-cis retinoic acid],identified in all three analyses,–,–
CCCCCCCCCCCCCCC[C@@H](O)[C@H](CO)NC(C)=O [C2 dihydroceramide],identified in all three analyses,–,–
CC[C@@H]1/C=C(\C)C[C@H](C)C[C@H](OC)[C@H]2O[C@@](O)(C(=O)C(=O)N3CCCC[C@H]3C(=O)O[C@H](/C(C)=C/[C@@H]3CC[C@@H](O)[C@H](OC)C3)[C@H](C)[C@@H](O)CC1=O)[C@H](C)C[C@@H]2OC [FK-520],also identified but was not among the top hits,–,–
COC(=O)C1=C(C)NC(C)=C(C(=O)OCCSc2ccccc2)C1C (stereo not drawn) [PCA 4248],identified in all three analyses,–,–
C/C(=C\c1ccc(C(=O)O)cc1)c1ccc2c(c1)C(C)(C)CCC2(C)C [TTNPB],identified in all three analyses,–,–
C=C(c1ccc(C(=O)O)cc1)c1cc2c(cc1C)C(C)(C)CCC2(C)C [bexarotene],identified in all three analyses,–,–
COc1c(C)c2c(c(O)c1C/C=C(\C)CCC(=O)OCCN1CCOCC1)C(=O)OC2 [mycophenolate mofetil],identified in all three analyses,–,–
COc1c(C)c2c(c(O)c1C/C=C(\C)CCC(=O)O)C(=O)OC2 [mycophenolic acid],identified in all three analyses,–,–
O=C1NC(=O)C(c2ccccc2)(c2ccccc2)N1 [phenytoin],identified in all three analyses,–,–
CCCCC[C@H](O)/C=C/C1=C(CCCCCCC(=O)O)C(=O)CC1 [prostaglandin B1],enhanced ALP expression,–,–
CCCCC[C@H](O)/C=C/C1=C(C/C=C\CCCC(=O)O)C(=O)CC1 [prostaglandin B2],identified in all three analyses,–,–
CCCCC[C@H](O)/C=C/[C@H]1[C@H](O)CC(=O)[C@@H]1CCCCCCC(=O)O [prostaglandin E1],identified in all three analyses; also recorded: enhanced ALP expression,–,–
CCCCC[C@H](O)/C=C/[C@H]1[C@H](O)CC(=O)[C@@H]1C/C=C\CCCC(=O)O [prostaglandin E2],enhanced ALP expression,–,–
C=C[C@H]1C[N@@]2CC[C@H]1C[C@H]2[C@H](O)c1ccnc2ccc(OC)cc12 [quinine],identified in all three analyses,–,–
Oc1ccc(C=Cc2cc(O)cc(O)c2)cc1 [resveratrol],notable hits among the top 45 compounds,–,–
"TGFβ1: transforming growth factor (TGF)-β1, anti-inflammatory cytokine used as antagonist of osteoblast differentiation",–,reduces basal levels,no apparent affect
